Tests used:
Experiment in all cases: in vitro antibacterial evaluation, MIC by broth dilution
Assay type in all cases: cell-based
Enterococcus sp. = conditions: broth dilution, 18 hours at 35° C.
How it was run: (§1)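 MIC = lowest antibiotic concentration preventing visible growth; inoculum 5×10^5 CFU/mL; drug range 64-0.06 μg/mL; Muller-Hinton II […]; NCCLS M7-A2 guidance.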

Staphylococcus sp. = conditions: broth dilution, 18 hours at 35° C.
How it was run: as §1

Streptococcus sp. = conditions: broth dilution, 18 hours at 35° C.
How it was run: as §1

Escherichia coli = conditions: 18 hours at 35° C.
How it was run: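 Broth dilution MIC per NCCLS M7-A2 in Mueller-Hinton II medium, inoculum 5×10^5 CFU/mL, antibiotic range 64-0.06 μg/mL. MIC taken as lowest concentration inhibiting growth.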

CC(c1ccccc1)C1NC(=O)CNC(=O)C(CO)NC(=O)C(C(O)C2CN(c3nc4ccccc4s3)C(=N)N2C2OC(CO)C(O)C(O)C2O)NC(=O)C(C(O)C2CNC(=Nc3nc4ccccc4s3)N2)NC(=O)C(Cc2ccc(OC3OC(CO)C(OC4OC(CO)C(O)C(O)C4O)C(O)C3O)cc2)NC1=O (stereo not drawn) [Example 94, Cyclo[glycyl-β-methylphenylalanyl-O-(4-O-hexopyranosylhexopyranosyl)tyrosyl-3-[2-(1,3-benzothiazol-2-ylimino)imidazolidin-4-yl]seryl-3-[1-(1,3-benzo-thiazol-2-yl)-2-imino-3-hexopyranosylimidazolidin-4-yl]serylseryl]]
64 µg/mL: MIC Escherichia coli (GC 4560) (Escherichia coli)
>64 µg/mL: MIC Enterococcus avium (GC 4558) (Enterococcus sp.; Enterococcus avium (GC 4558)) | MIC Enterococcus faecalis (ATCC 29212) (Enterococcus sp.; Enterococcus faecalis (ATCC 29212)) | MIC Enterococcus faecalis (GC 4552) (Enterococcus sp.; Enterococcus faecalis (GC 4552)) | MIC Enterococcus faecalis (GC 4553) (Enterococcus sp.; Enterococcus faecalis (GC 4553)) | MIC Enterococcus faecalis (GC 4554) (Enterococcus sp.; Enterococcus faecalis (GC 4554)) | MIC Enterococcus faecalis (GC 6189) (Enterococcus sp.; Enterococcus faecalis (GC 6189)) | MIC Enterococcus faecium (GC 2243) (Enterococcus sp.; Enterococcus faecium (GC 2243)) | MIC Enterococcus faecium (GC 4556) (Enterococcus sp.; Enterococcus faecium (GC 4556)) | MIC Enterococcus faecium (GC 4557) (Enterococcus sp.; Enterococcus faecium (GC 4557)) | MIC Enterococcus avium (GC 4558) (Enterococcus sp.) | MIC Enterococcus faecalis (ATCC 29212) (Enterococcus sp.) | MIC Enterococcus faecalis (GC 2242) (Enterococcus sp.) | MIC Enterococcus faecalis (GC 2691) (Enterococcus sp.) | MIC Enterococcus faecalis (GC 3059) (Enterococcus sp.) | MIC Enterococcus faecalis (GC 4552) (Enterococcus sp.) | MIC Enterococcus faecalis (GC 4553) (Enterococcus sp.) | MIC Enterococcus faecalis (GC 4554) (Enterococcus sp.) | MIC Enterococcus faecalis (GC 6189) (Enterococcus sp.) | MIC Enterococcus faecium (GC 2243) (Enterococcus sp.) | MIC Enterococcus faecium (GC 4556) (Enterococcus sp.) | MIC Enterococcus faecium (GC 4557) (Enterococcus sp.) | MIC Enterococcus faecalis (GC 2242) (Enterococcus sp.; strain GC 2242) | MIC Enterococcus faecalis (GC 2691) (Enterococcus sp.; strain GC 2691) | MIC Enterococcus faecalis (GC 3059) (Enterococcus sp.; strain GC 3059) | MIC Coagulase Negative Staphylococcus (GC 4547) (Staphylococcus sp.) | MIC Coagulase Negative Staphylococcus (GC 4548) (Staphylococcus sp.) | MIC Coagulase Negative Staphylococcus (GC 4549) (Staphylococcus sp.) | MIC Coagulase Negative Staphylococcus (GC 4551) (Staphylococcus sp.) | MIC Staphylococcus aureus-SMITH (GC 4543) (Staphylococcus sp.) | MIC Staphylococcus haemolyticus (GC 4546) (Staphylococcus sp.) | MIC Staphylococcus aureus (ATCC 29213) (Staphylococcus sp.; strain ATCC 29213) | MIC Staphylococcus aureus (GC 1131) (Staphylococcus sp.; strain GC 1131) | MIC Staphylococcus aureus (GC 3051) (Staphylococcus sp.; strain GC 3051) | MIC Staphylococcus aureus (GC 3053) (Staphylococcus sp.; strain GC 3053) | MIC Staphylococcus aureus (GC 4541) (Staphylococcus sp.; strain GC 4541) | MIC Staphylococcus aureus (GC 4542) (Staphylococcus sp.; strain GC 4542) | MIC Staphylococcus aureus-SMITH (GC 4543) (Staphylococcus sp.; strain GC 4543) | MIC Staphylococcus aureus (GC 4544) (Staphylococcus sp.; strain GC 4544) | MIC Staphylococcus aureus (GC 4545) (Staphylococcus sp.; strain GC 4545) | MIC Staphylococcus haemolyticus (GC 4546) (Staphylococcus sp.; strain GC 4546) | MIC Coagulase Negative Staphylococcus (GC 4547) (Staphylococcus sp.; strain GC 4547) | MIC Coagulase Negative Staphylococcus (GC 4548) (Staphylococcus sp.; strain GC 4548) | MIC Coagulase Negative Staphylococcus (GC 4549) (Staphylococcus sp.; strain GC 4549) | MIC Coagulase Negative Staphylococcus (GC 4551) (Staphylococcus sp.; strain GC 4551) | MIC Streptococcus agalactiae (GC 4564) (Streptococcus sp.) | MIC Streptococcus pneumoniae (ATCC 6301) (Streptococcus sp.) | MIC Streptococcus pneumoniae (GC 1894) (Streptococcus sp.) | MIC Streptococcus pneumoniae (GC 4565) (Streptococcus sp.) | MIC Streptococcus pyogenes (GC 4563) (Streptococcus sp.) | MIC Streptococcus pneumoniae (ATCC 6301) (Streptococcus sp.; strain ATCC 6301) | MIC Streptococcus pneumoniae (GC 1894) (Streptococcus sp.; strain GC 1894) | MIC Streptococcus pyogenes (GC 4563) (Streptococcus sp.; strain GC 4563) | MIC Streptococcus agalactiae (GC 4564) (Streptococcus sp.; strain GC 4564) | MIC Streptococcus pneumoniae (GC 4565) (Streptococcus sp.; strain GC 4565) | MIC Escherichia coli (ATCC 25922) (Escherichia coli) | MIC Escherichia coli (GC 4559) (Escherichia coli)

Reference: US6914045B2, “Glycopeptide antibiotics” (Wyeth Holdings Corporation, priority 2001, dated 2005)
